Holding throughout (assay type): biochemical
In one test the target is AURORA B (Homo sapiens, UniProt Q96GD4). As to the kind of experiment: In vitro filtration assay for AURORA B inhibitory activity. The conditions noted are these: peptide (C(LRRWSLG)×4), 1 μM unlabeled ATP, 25° C. 40 minutes, read-out: Aurora B see C.3 (pIC50) (converted). As for the experimental part: Compounds of the present invention were tested in an in vitro filtration assay assessing AURORA B activity by means of its substrate-phosphorylation activity using [^33P]-ATP as phosphor donor. The radioactive phosphorylated substrate is then captured on filtermats and the incorporated [^33P] quantitated using a phosphorage storage screen.
The Aurora-B kinase reaction is performed at 25° C. for 40 minutes in a 96-well microtiterplate. The 25 μl reaction volume contains 60 mM Hepes pH 7.5, 3 mM MgCl2, 3 mM MnCl2, 3 μM Na3VO4, 50 μg/ml PEG20000, 1 μM unlabeled ATP, 1 mM DTT, 0.2 μCi AT^33P, 0.25 μg/well peptide (C(LRRWSLG)×4),100 ng Aurora-B/well and 0.2% compound in 100% DMSO. The reaction is stopped by adding 5 μl of a 3% phosphoric acid solution. 10 μl of the reaction mixture is then spotted onto a Filtermat P30 filter (Wallac) and washed 3 times for 5 min. in 75 mM phosphoric acid and 1 time for 5 min. in methanol prior to drying and quantification on the Typhoon (Amersham) using a phosphorage storage screen.
(§1) For each experiment, controls (containing enzyme (complex) and DMSO without compound), a blank incubation (containing DMSO but no enzyme (complex) or compound) and samples (containing enzyme (complex) and compound dissolved in DMSO) were run in parallel. All compounds tested were dissolved and eventually further diluted in DMSO. […] In each test, the blank value was subtracted from both the control and the sample values. The control sample represented maximal enzyme activity. For each sample, the amount of cpm was expressed as a percentage of the mean cpm value of the controls. When appropriate, IC50-values (concentration of the drug, needed to reduce the enzyme activity to 50% of the control) were computed using linear interpolation between the experimental points just above and below the 50% level. Herein the effects of test compounds are expressed as pIC50 (the negative log value of the IC50-value).

The target in a further test is T1, AURORA A (Homo sapiens, UniProt O14965).
T1 sequence (O14965 1-403): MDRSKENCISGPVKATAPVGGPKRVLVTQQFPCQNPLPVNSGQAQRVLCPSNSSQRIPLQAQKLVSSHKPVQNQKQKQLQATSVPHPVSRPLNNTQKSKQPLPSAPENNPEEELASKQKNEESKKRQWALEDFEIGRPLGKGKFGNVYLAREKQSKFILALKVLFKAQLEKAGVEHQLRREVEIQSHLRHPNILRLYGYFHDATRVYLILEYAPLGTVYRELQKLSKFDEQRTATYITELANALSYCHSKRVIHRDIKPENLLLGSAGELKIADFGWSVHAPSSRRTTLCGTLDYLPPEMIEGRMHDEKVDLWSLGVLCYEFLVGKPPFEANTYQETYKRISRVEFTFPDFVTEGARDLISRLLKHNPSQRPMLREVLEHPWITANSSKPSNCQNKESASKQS
As to the kind of experiment: In vitro filtration assay for AURORA A inhibitory activity. As to conditions: Kemptide substrate, 1 μM unlabeled ATP, 25° C. 40 minutes, read-out: Aurora A see C.2 (pIC50) (converted). The procedure:
Compounds of the present invention were tested in an in vitro filtration assay assessing AURORA A activity by means of its substrate-phosphorylation activity using [^33P]-ATP as phosphor donor. The radioactive phosphorylated substrate is then captured on filtermats and the incorporated [^33P] quantitated using a phosphorage storage screen.
The Aurora-A kinase reaction is performed at 25° C. for 40 minutes in a 96-well microtiterplate. The 25 μl reaction volume contains 12 mM MOPS pH 7, 0.4 mM EDTA, 0.002% Brij35, 1% glycerol, 0.02% beta-mercapto-ethanol, 0.2 mg/ml BSA, 1 μM unlabeled ATP, […] [^33P]-ATP, 200 μM Kemptide, 3 ng Aurora A/well and 0.2% compound in 100% DMSO.
(§2) The reaction is stopped by adding 5 μl of a 3% phosphoric acid solution. 10 μl of the reaction mixture is then spotted onto a Filtermat P30 filter (Wallac) and washed 3 times for 5 min. in 75 mM phosphoric acid and 1 time for 5 min. in methanol prior to drying and quantification on the Typhoon (Amersham) using a phosphorage storage screen.
as §1

In a further test the target is CDK4/cyclinD1 (Homo sapiens, UniProt P11802). As to the kind of experiment: In vitro filtration assay for CDK4 inhibitory activity (pRb phosphorylation, [33P]-ATP). As to conditions: GST-pRb substrate, 1 μM unlabeled ATP, 25° C. 45 minutes, read-out: cdk4 filter (pIC50) (converted). The procedure: Compounds of the present invention were tested in an in vitro filtration assay assessing CDK4 activity by means of its pRb-phosphorylation activity using [^33P]-ATP as phosphor donor. The radioactive phosphorylated pRb is then captured on filtermats and the incorporated [^33P] quantitated using a phosphorage storage screen.
The CDK4 kinase reaction is performed at 25° C. for 45 minutes in a 96-well microtiterplate. The 25 μl reaction volume contains 50 mM Hepes pH 7.5, 10 mM NaF, 10 mM MgCl2, 1 mM Na3VO4, 1 μM unlabeled ATP, 1 mM DTT, 0.5 μCi AT^33P, 0.76 μg/well GST-pRb, 50 ng CDK4/cyclinD1/well and 0.2% compound in 100% DMSO.
as §2, §1

Structures are written as SMILES.

CDK4/cyclinD1, sequence (P11802 whole entry): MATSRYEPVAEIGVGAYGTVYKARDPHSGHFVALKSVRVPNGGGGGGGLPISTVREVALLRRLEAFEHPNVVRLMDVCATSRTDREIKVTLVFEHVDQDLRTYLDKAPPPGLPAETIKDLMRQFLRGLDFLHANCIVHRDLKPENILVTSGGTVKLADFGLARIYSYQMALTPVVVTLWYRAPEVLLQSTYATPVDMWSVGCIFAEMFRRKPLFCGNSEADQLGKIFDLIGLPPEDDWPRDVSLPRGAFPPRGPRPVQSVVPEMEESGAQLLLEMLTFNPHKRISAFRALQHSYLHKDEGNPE
CDK4/cyclinD1, sequence (P24385 whole entry partner): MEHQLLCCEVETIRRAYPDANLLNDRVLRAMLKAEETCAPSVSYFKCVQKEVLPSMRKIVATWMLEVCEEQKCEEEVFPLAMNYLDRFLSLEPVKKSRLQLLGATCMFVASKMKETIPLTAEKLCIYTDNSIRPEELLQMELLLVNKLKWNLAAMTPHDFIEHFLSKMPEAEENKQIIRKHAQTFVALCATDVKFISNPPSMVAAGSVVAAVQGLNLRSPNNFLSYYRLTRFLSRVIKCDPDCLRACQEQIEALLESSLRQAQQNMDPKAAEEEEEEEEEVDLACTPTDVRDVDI
AURORA B, sequence (Q96GD4 whole entry): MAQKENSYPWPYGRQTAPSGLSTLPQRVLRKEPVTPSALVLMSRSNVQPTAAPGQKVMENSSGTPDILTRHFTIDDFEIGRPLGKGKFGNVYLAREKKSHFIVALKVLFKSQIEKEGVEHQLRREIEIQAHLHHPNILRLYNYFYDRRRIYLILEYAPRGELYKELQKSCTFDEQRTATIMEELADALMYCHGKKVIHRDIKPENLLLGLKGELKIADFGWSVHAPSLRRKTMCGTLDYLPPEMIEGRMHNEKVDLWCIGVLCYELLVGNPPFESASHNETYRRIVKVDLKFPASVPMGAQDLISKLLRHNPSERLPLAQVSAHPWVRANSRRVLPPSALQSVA

With `CN1CCN(Cc2ccc(N(C(=O)OC(C)(C)C)c3ncc4cnn([C@H]5C[C@@H]6CC[C@H]5C6)c4n3)cc2)CC1` [compound 39], the IC50 was over 10 µM on AURORA B, 6310 nM at AURORA A and 1580 nM at CDK4/cyclinD1.

Turning to `CN1CCN(Cc2ccc(Nc3ncc4cnn([C@H]5C[C@@H]6CC[C@H]5C6)c4n3)cc2)CC1` [compound 40], the IC50 on AURORA B was 0.398 µM; at AURORA A, 316 nM; on CDK4/cyclinD1, 63.1 nM.

As for `CC(C)(C)OC(=O)N(c1ccc(CN2CCOCC2)cc1)c1ncc2cnn([C@H]3C[C@@H]4CC[C@H]3C4)c2n1` [compound 41], the figures for the IC50 on AURORA B, on AURORA A and on CDK4/cyclinD1 were 3.16 µM, 3160 nM and 3980 nM, respectively.

On to `COCCCN1CCN(Cc2ccc(N(C(=O)OC(C)(C)C)c3ncc4cnn(C5CCCCC5)c4n3)cc2)CC1` [compound 42], for which the IC50 on AURORA B was over 10 µM; at AURORA A, over 10000 nM; at CDK4/cyclinD1, over 10000 nM.

For the compound `COCCCN1CCN(Cc2ccc(Nc3ncc4cnn(C5CCCCC5)c4n3)cc2)CC1` [compound 43], the IC50 on AURORA B was 3.98 µM; at AURORA A, 126 nM; at CDK4/cyclinD1, 63.1 nM.

For the compound `COCCCC(=O)N1CCN(Cc2ccc(N(C(=O)OC(C)(C)C)c3ncc4cnn(C5CCCCC5)c4n3)cc2)CC1` [compound 44], the values for the IC50 on AURORA B, at AURORA A and at CDK4/cyclinD1 were over 10 µM, over 10000 nM and over 10000 nM, respectively.

`COCCCN(C(=O)OC(C)(C)C)C1CCN(Cc2ccc(N(C(=O)OC(C)(C)C)c3ncc4cnn(C5CCCCC5)c4n3)cc2)CC1` [compound 46]: the IC50 at AURORA B was over 10 µM; at AURORA A it was over 10000 nM; on CDK4/cyclinD1 it was over 10000 nM.

Consider `COCCCNC1CCN(Cc2ccc(Nc3ncc4cnn(C5CCCCC5)c4n3)cc2)CC1` [compound 47], for which the IC50 on AURORA B was 3.98 µM; on AURORA A, 316 nM; on CDK4/cyclinD1, 31.6 nM.

In the case of `CN1CCN(Cc2ccc(N(C(=O)OC(C)(C)C)c3ncc4cnn(C5CCOCC5)c4n3)cc2)CC1` [compound 48], the IC50 at AURORA B was over 10 µM; on AURORA A, over 10000 nM; at CDK4/cyclinD1 it was over 10000 nM.

On to `CC(C)(C)OC(=O)N(c1ccc(CN2CCOCC2)cc1)c1ncc2cnn(C3CCOCC3)c2n1` [compound 50], for which the IC50 on AURORA B is over 10 µM; at AURORA A it was over 10000 nM; on CDK4/cyclinD1, over 10000 nM.

Consider `c1cc(Nc2ncc3cnn(C4CCOCC4)c3n2)ccc1CN1CCOCC1` [compound 51], for which the IC50 on AURORA B is over 10 µM; on AURORA A it was 1000 nM; at CDK4/cyclinD1, 5010 nM.

Regarding `c1cc(Nc2ncc3cnn([C@H]4C[C@@H]5CC[C@H]4C5)c3n2)ccc1CN1CCOCC1` [compound 52], the IC50 on AURORA B is 0.316 µM; at AURORA A it was 158 nM; on CDK4/cyclinD1, 79.4 nM.

Regarding `CC(C)(O)CN1CCN(Cc2ccc(Nc3ncc4cnn(C5CCOCC5)c4n3)cc2)CC1` [compound 53], the values for the IC50 on AURORA B, on AURORA A and on CDK4/cyclinD1 were 7.94 µM, over 10000 nM and 501 nM, respectively.

In the case of `OCCN1CCN(Cc2ccc(Nc3ncc4cnn(C5CCOCC5)c4n3)cc2)CC1` [compound 54], the IC50 at AURORA B is over 10 µM; at AURORA A, over 10000 nM; at CDK4/cyclinD1, 631 nM.

Turning to `CC(C)(C)OC(=O)N(c1ccc(CN2CCN(CCO)CC2)cc1)c1ncc2cnn(C3CCOCC3)c2n1` [compound 55], the IC50 was over 10 µM at AURORA B, over 10000 nM at AURORA A and over 10000 nM at CDK4/cyclinD1.

For `O=C(c1ccc(Nc2ncc3cnn(C4CCCCC4)c3n2)cc1)N1CCOCC1` [compound 56], the IC50 was 3.16 µM at AURORA B, 126 nM at AURORA A and 25.1 nM on CDK4/cyclinD1.

As to `CN1CCN(C(=O)c2ccc(Nc3ncc4cnn([C@H]5C[C@@H]6CC[C@H]5C6)c4n3)cc2)CC1` [compound 57], the figures for the IC50 at AURORA B, on AURORA A and on CDK4/cyclinD1 were 7.94 µM, 100 nM and 100 nM, respectively.

Turning to `CC(C)(O)CN1CCN(C(=O)c2ccc(Nc3ncc4cnn(C5CCCCC5)c4n3)cc2)CC1` [compound 58], the IC50 on AURORA B is 1.26 µM; on AURORA A, 126 nM; at CDK4/cyclinD1, 631 nM.

On to `c1cc(Nc2ncc3cnn(C4CCCCC4)c3n2)ccc1CNC1CCNCC1` [compound 59], for which the IC50 is over 10 µM at AURORA B, 794 nM on AURORA A and 15.8 nM on CDK4/cyclinD1.

In the case of `CC(C)(C)OC(=O)N1CCC(N(Cc2ccc(Nc3ncc4cnn(C5CCCCC5)c4n3)cc2)C(=O)OC(C)(C)C)CC1` [compound 61], the IC50 on AURORA B was over 10 µM; on AURORA A, 1260 nM; on CDK4/cyclinD1, over 10000 nM.

In the case of `CN1CCC(N(Cc2ccc(Nc3ncc4cnn(C5CCCCC5)c4n3)cc2)C(=O)OC(C)(C)C)CC1` [compound 62], the IC50 at AURORA B is 6.31 µM; on AURORA A, 158 nM; on CDK4/cyclinD1 it was 25.1 nM.

Regarding `CC(C)(O)CN1CCC(NCc2ccc(Nc3ncc4cnn(C5CCCCC5)c4n3)cc2)CC1` [compound 63], the IC50 on AURORA B was 2.51 µM; on AURORA A, 1000 nM; at CDK4/cyclinD1 it was 25.1 nM.

With `CC(C)(C)OC(=O)N(c1ccc(CNCCN2CCOCC2)cc1)c1ncc2cnn([C@H]3C[C@@H]4CC[C@H]3C4)c2n1` [compound 64], the IC50 on AURORA B is over 10 µM; at AURORA A, over 10000 nM; at CDK4/cyclinD1, 6310 nM.

Regarding `c1cc(Nc2ncc3cnn([C@H]4C[C@@H]5CC[C@H]4C5)c3n2)ccc1CNCCN1CCOCC1` [compound 65], the values for the IC50 on AURORA B, at AURORA A and on CDK4/cyclinD1 were 0.501 µM, 501 nM and 200 nM, respectively.

`c1cc(Nc2ncc3cnn(C4CCCCC4)c3n2)ccc1CNC1CCOCC1` [compound 67]: the IC50 at AURORA B is 1 µM; on AURORA A, 1580 nM; at CDK4/cyclinD1, 251 nM.

For the compound `CN1CCC(NCc2ccc(N(C(=O)OC(C)(C)C)c3ncc4cnn([C@H]5C[C@@H]6CC[C@H]5C6)c4n3)cc2)CC1` [compound 68], the IC50 at AURORA B was 7.94 µM; on AURORA A it was 6310 nM; on CDK4/cyclinD1, 1000 nM.

Take `CN1CCC(NCc2ccc(Nc3ncc4cnn([C@H]5C[C@@H]6CC[C@H]5C6)c4n3)cc2)CC1` [compound 69]: the IC50 on AURORA B was 1 µM; on AURORA A, 631 nM; at CDK4/cyclinD1, 25.1 nM.

With `CC(C)(C)OC(=O)N(c1ccc(CNCCN2CCOCC2)cc1)c1ncc2cnn(C3CCOCC3)c2n1` [compound 70], the IC50 was over 10 µM at AURORA B, over 10000 nM at AURORA A and over 10000 nM on CDK4/cyclinD1.

Take `c1cc(Nc2ncc3cnn(C4CCOCC4)c3n2)ccc1CNCCN1CCOCC1` [compound 71]: the IC50 on AURORA B is over 10 µM; on AURORA A, 5010 nM; at CDK4/cyclinD1 it was 2510 nM.

Values taken from patent US7947695B2, “5-membered annelated heterocyclic pyrimidines as kinase inhibitors” (Janssen Pharmaceutica NV, priority 2005, dated 2011).
